Each structure is given as a SMILES string.

This data set can be described thus: gradient 5% acetonitrile 3 min, to 50% in 2 min, to 85% in 15 min, held 3 min, 100 µL/min. The settings on record: column: Zorbax Extend-C18 2.1 x 50 mm; eluents: water / acetonitrile, 0.1% formic acid. A digest of the protocol:
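Retention times of pure standards were taken from adduct peaks that were selected by computer and manually inspected. Over 3 months, mixtures of ~100 molecules were run by HPLC–quadrupole time-of-flight mass spectrometry in positive and negative ionization mode. The Zorbax Extend-C18 column (2.1 × 50 mm, 1.8 μm) ran at 100 μL/min in water and acetonitrile, each containing 0.1% formic acid, with 40 μL dead volume and 900 μL dwell volume.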
Compound `CCc1csc(-c2ccc(N3CCN(C(=O)c4ccc(Cl)nc4)CC3)nc2)n1` came in with an RP-LC retention time of 832 s.
In turn, `Cc1c(C(=O)NC2CCS(=O)(=O)C2)nnn1-c1ccccc1F` (centres undefined) came in with an RP-LC retention time of 656 s.
`O=C(Nc1cccc(F)c1)C1CC(=O)N(CCc2c[nH]c3ccc(F)cc23)C1` (centres undefined): the RP-LC retention time stood at 799 s.
In the case of `O=C(NC1CCCCC1)c1cccn1Cc1noc(-c2ccccc2)n1`, the RP-LC retention time came out at 1070 s.
The compound `Cc1nnc2c(NC(=O)c3ccncc3)cccn12` gave an RP-LC retention time of 575 s.
Regarding `CCOc1ccc(N(C)S(=O)(=O)c2ccsc2C(=O)NC(C)CCc2ccccc2)cc1` (centres undefined), the RP-LC retention time amounted to 1260 s.
`CCn1cc(C(=O)NC2CCN(c3ccc(=O)n(CCOc4ccccc4)n3)C2)cn1` (centres undefined) came in with an RP-LC retention time of 692 s.
Regarding `COc1cccc(CNC(=O)N2CCCC2c2c(C)noc2C)c1` (centres undefined), the RP-LC retention time was determined as 733 s.
In the case of `O=C(C1CCCN(c2ncnc3c2nc2n3CCCCC2)C1)N1CCN(c2ccccc2)CC1` (centres undefined), the RP-LC retention time was 803 s.
As to `O=C(Nc1ccc(Br)cc1)C1CCCN(c2ncc(-c3ccc(F)cc3)cn2)C1` (centres undefined), the RP-LC retention time came out at 1240 s.
In the case of `Cc1ccc(-c2nc(C3CC(=O)N(c4ccc(Cl)cc4)C3)no2)c(C)c1` (centres undefined) it was 994 s.
The compound `O=C(Nc1nc(CC(=O)N2CCCc3ccccc32)cs1)C1CC1` had an RP-LC retention time of 739 s.
Under `O=C([C@@H]1C[C@H](Oc2ccccc2)CN1C(=O)COc1ccccc1)N1CCCC1` stands 828 s; under `CN(CC1CCOC1)C(=O)NCc1ccc(F)cc1` (centres undefined), 669 s.
For `Cc1c(-c2cc(NS(=O)(=O)c3ccccc3Cl)n(C)n2)sc2ccc(Cl)cc12`, the RP-LC retention time turned out to be 1160 s.
`O=C(NC1CCCC1)c1nc2ccccn2c1-c1ccc(F)cc1` showed an RP-LC retention time of 826 s.
`Cc1ccc(CNC(=O)Cn2cnc3nc(N4CCCC(C(=O)NC(C)C)C4)sc3c2=O)cc1` (centres undefined) returned an RP-LC retention time of 710 s.
Compound `COc1ccccc1NC(=O)c1cnc2c(c1)c(=O)n(C)c(=O)n2-c1ccccc1` registered an RP-LC retention time of 922 s.
`O=S(=O)(c1cccnc1)N1CCC(c2nnc(-c3ccc(F)cc3)o2)CC1` returned an RP-LC retention time of 734 s.
In the case of `O=C(CSc1nnc2c3cc(-c4ccc(F)cc4)nn3ccn12)Nc1ccc(F)cc1Cl` it was 940 s.
`CCC(=O)Nc1ccc(-n2cnc(C(=O)NCc3ccc(C)c(C)c3)c2)nc1` showed an RP-LC retention time of 791 s.
`COc1ccc(C2C(C(=O)NCCC(C)C)CCC(=O)N2c2cc(OC)c(OC)c(OC)c2)cc1` (centres undefined) had an RP-LC retention time of 744 s.
In the case of `COc1ccc(OC)c(CNC(=O)CCC(=O)N2CCCn3nc(-c4cccn4C)cc32)c1` it was 755 s.
`CC(C)N(CC(=O)N1CCNCC1)C(=O)c1cccc(Br)c1` displayed an RP-LC retention time of 573 s.
Compound `CCc1cc(C(=O)N2CCN(CC)CC2)nc2cc(-c3ccco3)nn12` yielded an RP-LC retention time of 616 s.
In the case of `Cc1ccc(S(=O)(=O)N2CCCC(C(=O)Nc3cc(-c4nc(C)cs4)sc3C)C2)cc1` (centres undefined) it was 1060 s.
Take `Cc1nc(-c2ccc(N3CCN(C(=O)Nc4ccc(F)cc4)CC3)cc2)no1`: the RP-LC retention time is 787 s.
The compound `CCOC(=O)C1=C(C)NC2=C(C(=O)C(C(=O)OC)C(C)C2)C1c1ccccc1OC` (centres undefined) showed an RP-LC retention time of 849 s.
Compound `CCN(CC)c1nc2cc(C(=O)OC)ccc2c(=O)n1-c1cc(F)cc(F)c1` returned an RP-LC retention time of 1180 s.
Under `COc1cccc(-n2cc(C(=O)Oc3cccnc3)c3ccccc3c2=O)c1` stands 926 s.
Compound `Cc1nn(-c2ccc(F)cc2)c(C)c1S(=O)(=O)N1CCC(C(=O)NC(C)(C)C)CC1` yielded an RP-LC retention time of 888 s.
Compound `COCCCNC(=O)c1cc(-c2ccc(OC)c(OC)c2)nc2n[nH]c(-c3ccc(OC)cc3)c12` yielded an RP-LC retention time of 724 s.
For `CCOc1ccc(CC(=O)N2C[C@@H]3C[C@H](NC(=O)c4ccccc4)[C@H]2C3)cc1`, the RP-LC retention time was 799 s.
For the compound `Cc1cc(C)cc(C(=O)NC2CCN(c3cc(-c4cccs4)[nH]n3)C2)c1` (centres undefined), the RP-LC retention time was 742 s.
As to `COc1ccc(CSc2nccc3c2ccn3CC(=O)N2CCN(c3ccccc3)CC2)cc1`, the RP-LC retention time is 786 s.
With `COc1ccc(C(CC(=O)N2CCN(c3ccccn3)CC2)N2Cc3ccccc3C2=O)cc1OC` (centres undefined), the RP-LC retention time stood at 612 s.
In the case of `Cc1ccc(S(=O)(=O)c2cnc(N3CCN(c4cc(C)ccc4C)CC3)nc2N)cc1` it was 1310 s; in that of `CCOC(=O)c1noc2nc(C)nc(Nc3ccc(CC)cc3)c12`, 1160 s.
As to `C=CCn1nnc(NCc2ccc(-c3ccc(Cl)cc3Cl)o2)n1`, the RP-LC retention time is 1160 s.
`COc1ccccc1CNC(=O)C1CCCN(c2ncnc3c2oc2ccccc23)C1` (centres undefined) displayed an RP-LC retention time of 746 s.
On to `COc1ccc(-n2c(=O)n(C)c(=O)c3cc(C(=O)Nc4ccccc4OC)cnc32)cc1`, for which the RP-LC retention time worked out at 892 s.
In the case of `Cc1nc(-n2c(C)ccc2C)sc1C(=O)NC(C)C` it was 954 s; in that of `CC(C)CNC(=O)NCC1Cn2cccc2C(=O)N1Cc1ccccc1` (centres undefined), 744 s; in that of `CCOC(=O)N1CCC(NC(=O)C(=O)NCc2cccs2)CC1`, 692 s.
`CCCN(CC1CCOC1)C(=O)Nc1ccccc1Br` (centres undefined) returned an RP-LC retention time of 832 s.
With `CCOC(=O)C1=C(O)C(=O)N(c2ccccc2)C1c1ccccc1` (centres undefined), the RP-LC retention time stood at 881 s.
In turn, `O=C(NCCc1c[nH]c2ccc(Cl)cc12)c1cncc(Br)c1` registered an RP-LC retention time of 851 s.
Take `Clc1ccccc1-c1nc(-c2cccc(-c3ccn[nH]3)c2)no1`: the RP-LC retention time amounted to 1040 s.
`O=C(Cc1cccc(F)c1)Nc1cc(-c2cccs2)no1` gave an RP-LC retention time of 947 s.
`CCc1cc(C(=O)NC2CC2)nc2cc(-c3cccs3)nn12` had an RP-LC retention time of 1010 s.
`Cc1ccc2[nH]cc(CCNC(=O)c3sc4ncccc4c3-n3cccc3)c2c1` displayed an RP-LC retention time of 1070 s.
`COc1ccccc1NC(=O)Cn1nc2c(Oc3cc(C)cc(C)c3)nccn2c1=O` returned an RP-LC retention time of 957 s.
In turn, `O=C([C@@H]1C[C@H](F)CN1S(=O)(=O)c1cccc(F)c1)N1CCCCC1` had an RP-LC retention time of 805 s.
In the case of `COc1ccc(C2(C(=O)N3CCC4(CC3)CN(C(C)C)C4c3ccccc3)CC2)cc1` (centres undefined) it was 684 s; in that of `COc1ccc(-c2noc(-c3nc(C)no3)n2)c(OC)c1`, 888 s.
For the compound `CN1CCN(C2Cc3ccccc3Sc3ccc(Cl)cc32)CC1` (centres undefined), the RP-LC retention time turned out to be 872 s.
In the case of `O=C(CS(=O)(=O)Cc1ccccc1)NCc1ccccc1` it was 741 s; in that of `Fc1ccc(-c2nc(-c3ccc4nncn4c3)no2)c(Cl)c1`, 849 s.
`CCc1ccc(-c2cc3c(=O)n(CC(=O)NCCCN4CCCC4=O)nc(C)n3n2)cc1` gave an RP-LC retention time of 812 s.
Compound `Cn1nc(-c2nnc(-c3ccccc3)o2)c2c1CCN(S(=O)(=O)c1cccc(C(F)(F)F)c1)C2` showed an RP-LC retention time of 981 s.
With `CCCCNC(=O)C1CCN(C(=O)Nc2ccc(NC(=O)Nc3ccccc3)cc2)CC1`, the RP-LC retention time stood at 729 s.
In turn, `CCN(CC)S(=O)(=O)c1ccc2c(c1)CC(C(=O)NCCN1CCCC1)N2C(C)=O` (centres undefined) yielded an RP-LC retention time of 613 s.
As to `CC1CN(C(=O)c2cc3cc([N+](=O)[O-])ccc3s2)CC(C)O1` (centres undefined), the RP-LC retention time stood at 780 s.
As for `O=C(Nc1cccc(C(F)(F)F)c1)N1CCN(c2ccc(Nc3cccnc3)nn2)CC1`, the RP-LC retention time was 566 s.
`COc1ccc(CNC(=O)Cn2nc3c(Oc4ccccc4C)nccn3c2=O)cc1` returned an RP-LC retention time of 957 s.
`COc1ccc(-c2nnc(-c3ccc(C)c(S(=O)(=O)NCc4cccs4)c3)o2)cc1OC` gave an RP-LC retention time of 917 s.
With `Cc1nn2c(CNC(=O)c3ccccc3)c(-c3ccccc3)nc2s1`, the RP-LC retention time amounted to 810 s.
Compound `O=C(O)c1nnn(-c2ccc3c(c2)OCCO3)c1-c1cccnc1` displayed an RP-LC retention time of 568 s.
Compound `CCCc1nc2cccnc2n1C1CCN(C(=O)Nc2ccc3c(c2)OCCO3)C1` (centres undefined) came in with an RP-LC retention time of 600 s.
In turn, `CC(C)NC(=O)c1nc(-c2ccnc(N3CCCCC3)c2)no1` showed an RP-LC retention time of 671 s.
In the case of `Cc1ccc(-c2nc(C)cc(OCC(=O)Nc3ccccc3C)n2)cc1` it was 1030 s; in that of `Cc1cc(=O)n(CC(=O)Nc2ccc(Br)cc2F)c(N(C)Cc2ccccc2)n1`, 862 s; in that of `O=C(NCc1csc(-c2cccs2)n1)C1CCN(C(=O)c2cccc(Cl)c2)CC1`, 802 s.
With `C=CCc1c(C)nn(-c2nc(CC(=O)Nc3nc4ccccc4[nH]3)cs2)c1C`, the RP-LC retention time was 764 s.
Take `O=C(NCc1ccc2c(c1)OCO2)c1cn2c(n1)COCC2`: the RP-LC retention time was found to be 616 s.
Take `CC(C)(NC(=O)c1ccoc1)c1nc2c(c(C(N)=O)n1)OCO2`: the RP-LC retention time was 818 s.
Under `COCC(=O)NC1CCC12CCN(S(=O)(=O)c1c(C)nn(C)c1C)CC2` (centres undefined) stands 657 s; under `Cc1ccc(CNC(=O)c2ccc3c(c2)Sc2ncccc2C(=O)N3C)cc1`, 796 s; under `COc1ccc(Cl)cc1NC(=O)C1CCCN(S(=O)(=O)c2cc(-c3noc(C)n3)cs2)C1` (centres undefined), 1080 s.

The record behind these values is the METLIN SMRT retention time set (Domingo-Almenara et al. 2019).
